Tested on: mouse collagen-induced arthritis model
Assay: Mouse collagen-induced arthritis model
Assay type: in vivo
Procedure: On Days 0 and 21, […] of chicken cartilage-derived collagen (Nippon Meat Packers, Inc., Japan) in 0.1 mL of complete Freund's adjuvant (Difco Laboratories, Inc., U.S.) was subcutaneously injected to female DBA/1J Jms Slc mice (6- to 8-week-old) (Japan SLC, Japan) to immunize the mice.
Among the compounds of the present invention, a representative test compound (Example compound 1-N-6 or 2-N-100) was orally administered twice daily every day from Day 21 to Day 34 at a dose of 25 or 50 mg/kg (method A) or from Day 21 to Day 29 at a dose of 1, 3, 10, or 30 mg/kg (method B). The solution for administration was prepared by using 0.5% w/v Methylcellulose 400 Solution (Wako Pure Chemical Industries, Ltd.) as a solvent.
After administration of collagen on Day 21, the extent of development of arthritis in the mouse limbs were scored by visually observing each limb periodically according to the clinical scores outlined in Table X-1.
The clinical scores for all four limbs were summed up for each mouse and the mean±standard error (SE) of each treatment group was calculated. Evaluation was performed until the following day of the final administration.

Question: Which toxicity (method A: oral twice daily Day 21 to Day 34, 25 or 50 mg/kg) does the source give for `N#Cc1cccc(-c2cc(N3CCNCC3)c3cnccc3c2)c1` [Example 1-N-6] here?
Answer: The toxicity was “did not exhibit toxicity”.

Question: And the “onset of arthritis (clinical scores)” value (method A: oral twice daily Day 21 to Day 34, 25 or 50 mg/kg, FIG. 1)?
Answer: Its value is “suppressed the onset of arthritis”.

Question: What does the source list for `Cc1ccc(C(=O)N2CCC(Nc3cc(-c4cccc(C#N)c4)cc4ccncc34)CC2)cn1` [Example 2-N-100]?
Answer: toxicity (method B: oral twice daily Day 21 to Day 29, 1, 3, 10 or 30 mg/kg): did not exhibit toxicity; onset of arthritis (clinical scores) (method B: oral twice daily Day 21 to Day 29, 1, 3, 10 or 30 mg/kg, FIG. 2): suppressed the onset of arthritis
